± gives the expanded uncertainty stated by the source.
What was measured:
[1] = xn = mol fraction of the nth substance listed; settings: 1800 kPa, Liquid, Vibrating tube method
[2] = wn = mass fraction of the nth substance listed; settings: 1800 kPa, Liquid, Falling or rolling sphere viscometry
[3] = molar heat capacity at constant pressure; wn = mass fraction of the nth substance listed; settings: 1800 kPa, Liquid, Small sample (50 mg) DSC

O=[N+]([O-])[O-].[Li+] [lithium nitrate] + N
Settings | mass density [kg/m3] | molar heat capacity at constant pressure [J/K/mol] | viscosity [mPa·s]
[1], 293.15 K, x2 = 0.3501 | 1188.8 ± 0.8 | – | –
[1], 293.15 K, x2 = 0.3988 | 1134.2 ± 0.8 | – | –
[1], 293.15 K, x2 = 0.4499 | 1078.1 ± 0.8 | – | –
[1], 293.15 K, x2 = 0.5 | 1030 ± 0.8 | – | –
[1], 293.15 K, x2 = 0.55 | 983.8 ± 0.7 | – | –
[1], 293.15 K, x2 = 0.5999 | 939 ± 0.7 | – | –
[1], 293.15 K, x2 = 0.6505 | 896.8 ± 0.7 | – | –
[1], 303.15 K, x2 = 0.3501 | 1181.2 ± 0.8 | – | –
[1], 303.15 K, x2 = 0.3988 | 1126.6 ± 0.8 | – | –
[1], 303.15 K, x2 = 0.4499 | 1070.3 ± 0.8 | – | –
[1], 303.15 K, x2 = 0.5 | 1022.1 ± 0.8 | – | –
[1], 303.15 K, x2 = 0.55 | 975.4 ± 0.7 | – | –
[1], 303.15 K, x2 = 0.5999 | 929.8 ± 0.7 | – | –
[1], 303.15 K, x2 = 0.6505 | 886.9 ± 0.7 | – | –
[1], 313.15 K, x2 = 0.3501 | 1173.8 ± 0.8 | – | –
[1], 313.15 K, x2 = 0.3988 | 1119 ± 0.8 | – | –
[1], 313.15 K, x2 = 0.4499 | 1062.6 ± 0.8 | – | –
[1], 313.15 K, x2 = 0.5 | 1014.1 ± 0.8 | – | –
[1], 313.15 K, x2 = 0.55 | 966.8 ± 0.7 | – | –
[1], 313.15 K, x2 = 0.5999 | 920.6 ± 0.7 | – | –
[1], 313.15 K, x2 = 0.6505 | 876.7 ± 0.7 | – | –
[1], 323.15 K, x2 = 0.3501 | 1166.6 ± 0.8 | – | –
[1], 323.15 K, x2 = 0.3988 | 1111.5 ± 0.8 | – | –
[1], 323.15 K, x2 = 0.4499 | 1055.1 ± 0.8 | – | –
[1], 323.15 K, x2 = 0.5 | 1006.1 ± 0.8 | – | –
[1], 323.15 K, x2 = 0.55 | 958.1 ± 0.7 | – | –
[1], 323.15 K, x2 = 0.5999 | 911.2 ± 0.7 | – | –
[1], 323.15 K, x2 = 0.6505 | 866.6 ± 0.7 | – | –
[1], 333.15 K, x2 = 0.3501 | 1159.7 ± 0.8 | – | –
[1], 333.15 K, x2 = 0.3988 | 1104.1 ± 0.8 | – | –
[1], 333.15 K, x2 = 0.4499 | 1047.5 ± 0.8 | – | –
[1], 333.15 K, x2 = 0.5 | 998 ± 0.8 | – | –
[1], 333.15 K, x2 = 0.55 | 949.4 ± 0.7 | – | –
[1], 333.15 K, x2 = 0.5999 | 901.6 ± 0.7 | – | –
[1], 343.15 K, x2 = 0.3501 | 1153.1 ± 0.8 | – | –
[1], 343.15 K, x2 = 0.3988 | 1096.9 ± 0.8 | – | –
[1], 343.15 K, x2 = 0.4499 | 1040 ± 0.8 | – | –
[1], 343.15 K, x2 = 0.5 | 990.1 ± 0.8 | – | –
[1], 343.15 K, x2 = 0.55 | 940.4 ± 0.8 | – | –
[1], 353.15 K, x2 = 0.3501 | 1146.9 ± 0.8 | – | –
[1], 353.15 K, x2 = 0.3988 | 1090.2 ± 0.8 | – | –
[1], 353.15 K, x2 = 0.4499 | 1032.8 ± 0.8 | – | –
[1], 353.15 K, x2 = 0.5 | 982.1 ± 0.8 | – | –
[2], 293.2 K, w2 = 0.4 | – | – | 22.7 ± 0.5
[2], 293.2 K, w2 = 0.4997 | – | – | 7.1 ± 0.4
[2], 298.2 K, w2 = 0.4 | – | – | 18.7 ± 0.5
[2], 298.2 K, w2 = 0.4997 | – | – | 6.1 ± 0.4
[2], 303.2 K, w2 = 0.4 | – | – | 15.5 ± 0.4
[2], 303.2 K, w2 = 0.4997 | – | – | 5.3 ± 0.4
[2], 308.2 K, w2 = 0.4 | – | – | 13 ± 0.4
[2], 308.2 K, w2 = 0.4997 | – | – | 4.7 ± 0.4
[2], 313.2 K, w2 = 0.4 | – | – | 11 ± 0.4
[2], 313.2 K, w2 = 0.4997 | – | – | 4.1 ± 0.4
[2], 318.2 K, w2 = 0.4 | – | – | 9.3 ± 0.4
[2], 318.2 K, w2 = 0.4997 | – | – | 3.6 ± 0.4
[2], 323.2 K, w2 = 0.3 | – | – | 18.6 ± 0.4
[2], 323.2 K, w2 = 0.4 | – | – | 8 ± 0.4
[2], 323.2 K, w2 = 0.4997 | – | – | 3.3 ± 0.4
[2], 328.1 K, w2 = 0.4997 | – | – | 2.9 ± 0.4
[2], 328.2 K, w2 = 0.3 | – | – | 15.9 ± 0.4
[2], 328.2 K, w2 = 0.4 | – | – | 6.9 ± 0.4
[2], 333.1 K, w2 = 0.4997 | – | – | 2.6 ± 0.4
[2], 333.2 K, w2 = 0.3 | – | – | 13.8 ± 0.4
[2], 333.2 K, w2 = 0.4 | – | – | 6.1 ± 0.4
[2], 338 K, w2 = 0.4997 | – | – | 2.4 ± 0.4
[2], 338.1 K, w2 = 0.3 | – | – | 11.9 ± 0.4
[2], 338.1 K, w2 = 0.4 | – | – | 5.4 ± 0.4
[2], 343 K, w2 = 0.4997 | – | – | 2.2 ± 0.4
[2], 343.1 K, w2 = 0.3 | – | – | 10.9 ± 0.4
[2], 343.1 K, w2 = 0.4 | – | – | 4.8 ± 0.4
[2], 348.1 K, w2 = 0.3 | – | – | 9 ± 0.4
[2], 348.2 K, w2 = 0.4 | – | – | 4.3 ± 0.4
[2], 353.1 K, w2 = 0.4 | – | – | 3.8 ± 0.4
[2], 353.2 K, w2 = 0.3 | – | – | 7.9 ± 0.4
[3], 312.65 K, w2 = 0.5 | – | 85.88 ± 1.3 | –
[3], 312.67 K, w2 = 0.3501 | – | 84.48 ± 1.3 | –
[3], 312.67 K, w2 = 0.4003 | – | 84.65 ± 1.3 | –
[3], 312.67 K, w2 = 0.4499 | – | 85.21 ± 1.3 | –
[3], 312.67 K, w2 = 0.5497 | – | 84.75 ± 1.3 | –
[3], 322.56 K, w2 = 0.5 | – | 86.67 ± 1.3 | –
[3], 322.57 K, w2 = 0.3501 | – | 85.61 ± 1.3 | –
[3], 322.58 K, w2 = 0.4003 | – | 85.8 ± 1.3 | –
[3], 322.58 K, w2 = 0.4499 | – | 86.2 ± 1.3 | –
[3], 322.58 K, w2 = 0.5497 | – | 85.55 ± 1.3 | –
[3], 332.46 K, w2 = 0.5 | – | 87.54 ± 1.4 | –
[3], 332.48 K, w2 = 0.3501 | – | 86.65 ± 1.3 | –
[3], 332.48 K, w2 = 0.4499 | – | 87.22 ± 1.3 | –
[3], 332.48 K, w2 = 0.5497 | – | 86.09 ± 1.3 | –
[3], 332.49 K, w2 = 0.4003 | – | 86.7 ± 1.3 | –
[3], 342.37 K, w2 = 0.5 | – | 88.33 ± 1.4 | –
[3], 342.38 K, w2 = 0.3501 | – | 87.52 ± 1.4 | –
[3], 342.38 K, w2 = 0.5497 | – | 86.97 ± 1.3 | –
[3], 342.39 K, w2 = 0.4003 | – | 87.51 ± 1.4 | –
[3], 342.39 K, w2 = 0.4499 | – | 88.09 ± 1.4 | –
[3], 352.29 K, w2 = 0.3501 | – | 88.22 ± 1.4 | –
[3], 352.29 K, w2 = 0.4003 | – | 88.07 ± 1.4 | –
[3], 352.31 K, w2 = 0.4499 | – | 88.59 ± 1.4 | –

Reference: the NIST ThermoML archive (doi:10.1021/je8003035)
